Measured values as given in US20240308996A1, “PYRIDOPYRIDINES AND DERIVATIVES THEREOF AS SELECTIVE KINASE INHIBITORS” (University of Sharjah, priority 2023, published 2024).

Legend:
Format in all cases: cell-based
OVCAR-4 = experiment: NCI-60 cell line panel: OVCAR-4; details: Ovarian Cancer
Description: (§1) It was carried out at the NCI, Bethesda, MD, USA, utilizing their standard protocol.

BT-549 = experiment: NCI-60 cell line panel: BT-549; details: Breast Cancer
Description: as §1

HS 578T = experiment: NCI-60 cell line panel: HS 578T
Description: as §1

SF-295 = experiment: NCI-60 cell line panel: SF-295; details: CNS Cancer
Description: as §1

HCT-116 = experiment: NCI-60 cell line panel: HCT-116; details: Colon Cancer
Description: as §1

HOP-92 = experiment: NCI-60 cell line panel: HOP-92; set-up: TGI: unit not given here; details: Non-Small Cell Lung Cancer
Description: as §1

HT29 = experiment: NCI-60 cell line panel: HT29
Description: as §1

MCF7 = experiment: NCI-60 cell line panel: MCF7; details: Breast Cancer
Description: as §1

NCI-H522 = experiment: NCI-60 cell line panel: NCI-H522; set-up: TGI: unit not given here; details: Non-Small Cell Lung Cancer
Description: as §1

786-0 = experiment: NCI-60 cell line panel: 786-0; details: Renal Cancer
Description: as §1

UACC-257 = experiment: NCI-60 cell line panel: UACC-257; details: Melanoma
Description: as §1

EKVX = experiment: NCI-60 cell line panel: EKVX; details: Non-Small Cell Lung Cancer
Description: as §1

MOLT-4 = experiment: NCI-60 cell line panel: MOLT-4; set-up: TGI: unit not given here; details: Leukemia
Description: as §1

SK-MEL-5 = experiment: NCI-60 cell line panel: SK-MEL-5; details: Melanoma
Description: as §1

Hep3B = experiment: MTT assay, Hep3B HCC cell line; details: Homo sapiens, 48 h, mean of triplicate assays ± SEM
Description: (§2) Two HCC cell lines (Hep3B and HepG2) were used for screening the antiproliferative activity of the synthesized compounds. The cell lines were obtained from the European Collection of Cell Cultures (ECACC, UK) and maintained in Dulbecco's Modified Eagle Medium (DMEM: Sigma-Aldrich) supplemented with 10% fetal bovine serum (FBS) and 1% penicillin/streptomycin and incubated at 37° C. in a 5% CO2 air atmosphere. In addition, WI-38 normal cell line was used to investigate the safety of these compounds.
(§3) MTT assay was conducted to calculate the IC50 of the compounds following the reported procedure . Briefly, the cells were seeded in 96-well tissue culture plates with a density of 5×10^4 cells/well and incubated overnight at 37° C. in a 5% CO2 air atmosphere. […] DMSO was used as a negative control. After 48 h, the media were aspirated, and replaced with media containing 0.5 mg/mL of MTT tetrazolium dye (Sigma-Aldrich) for 2 h at 37° C. Finally, the media were removed and 200 μL of DMSO was added to solubilize the formazan crystals. Absorbance was then measured at 570 nm using Varioskan Flash multimode plate reader (Thermo Scientific, Massachusetts, USA).

SNB-19 = experiment: NCI-60 cell line panel: SNB-19; details: CNS Cancer
Description: as §1

SN12C = experiment: NCI-60 cell line panel: SN12C; details: Renal Cancer
Description: as §1

NCI-H322M = experiment: NCI-60 cell line panel: NCI-H322M; details: Non-Small Cell Lung Cancer
Description: as §1

MALME-3M = experiment: NCI-60 cell line panel: MALME-3M; details: Melanoma
Description: as §1

MDA-MB-468 = experiment: NCI-60 cell line panel: MDA-MB-468; details: Breast Cancer
Description: as §1

SK-MEL-2 = experiment: NCI-60 cell line panel: SK-MEL-2; set-up: TGI: unit not given here; details: Melanoma
Description: as §1

PC-3 = experiment: NCI-60 cell line panel: PC-3; details: Prostate Cancer
Description: as §1

A549/ATCC = experiment: NCI-60 cell line panel: A549/ATCC; details: Non-Small Cell Lung Cancer
Description: as §1

NCI-H460 = experiment: NCI-60 cell line panel: NCI-H460; details: Non-Small Cell Lung Cancer
Description: as §1

OVCAR-3 = experiment: NCI-60 cell line panel: OVCAR-3; details: Ovarian Cancer
Description: as §1

COLO 205 = experiment: NCI-60 cell line panel: COLO 205; set-up: TGI: unit not given here; details: Colon Cancer
Description: as §1

U251 = experiment: NCI-60 cell line panel: U251; set-up: TGI: unit not given here
Description: as §1

HOP-62 = experiment: NCI-60 cell line panel: HOP-62; details: Non-Small Cell Lung Cancer
Description: as §1

OVCAR-8 = experiment: NCI-60 cell line panel: OVCAR-8; details: Ovarian Cancer
Description: as §1

HepG2 = experiment: MTT assay, HepG2 HCC cell line; details: Homo sapiens, 48 h, mean of triplicate assays ± SEM
Description: as §2, §3

UACC-62 = experiment: NCI-60 cell line panel: UACC-62; details: Melanoma
Description: as §1

[1] = total growth inhibition, in µM (unit assumed)

CNC(=O)c1cc(-c2ccc(NC(=O)Nc3ccc(N4CCN(C)CC4)c(C(F)(F)F)c3)cc2)nc2cccnc12 [Compound 13b, N-Methyl-2-(4-(3-(4-(4-methylpiperazin-1-yl)-3-(trifluoromethyl)phenyl)ureido)phenyl)-1,5-naphthyridine-4-carboxamide]
IC50 (OVCAR-4; Homo sapiens): 15.7 µM
TGI (OVCAR-4; [1]): 31.6
TGI (BT-549; total growth inhibition): 35.3 µM
IC50 (BT-549; Homo sapiens): 16.5 µM
TGI (HS 578T; Breast Cancer, HS 578T, total growth inhibition): 38.9 µM
IC50 (HS 578T; Homo sapiens, Hs-578T): 15 µM
TGI (SF-295; total growth inhibition, unit assumed): 36.9 µM
IC50 (SF-295; Homo sapiens): 18 µM
TGI (HCT-116; total growth inhibition): 75.6 µM
IC50 (HCT-116; Homo sapiens): 4.09 µM
IC50 (HOP-92; Homo sapiens): 6.54 µM
TGI (HOP-92; total growth inhibition): 100
TGI (HT29; Colon Cancer, total growth inhibition): 4.19 µM
IC50 (HT29; Homo sapiens, HT-29, Colon Cancer): 1.92 µM
TGI (MCF7; total growth inhibition): 3.45 µM
IC50 (MCF7; Homo sapiens): 1.67 µM
IC50 (NCI-H522; Homo sapiens): 16.5 µM
TGI (NCI-H522; total growth inhibition): 31.1
IC50 (786-0; Homo sapiens): 1.81 µM
TGI (786-0; total growth inhibition): 3.52 µM
IC50 (UACC-257; Homo sapiens): 15.3 µM
TGI (UACC-257; total growth inhibition): 28.8 µM
IC50 (EKVX; Homo sapiens): 17.9 µM
TGI (EKVX; [1]): 33.9
IC50 (MOLT-4; Homo sapiens): 2.79 µM
TGI (MOLT-4; total growth inhibition): 14.9
IC50 (SK-MEL-5; Homo sapiens): 17.5 µM
TGI (SK-MEL-5; total growth inhibition): 31.7 µM
IC50 (Hep3B): 2.32 ± 0.02 µM
TGI (SNB-19; total growth inhibition): 33.2 µM
IC50 (SNB-19; Homo sapiens): 16.8 µM
IC50 (SN12C; Homo sapiens): 16.7 µM
TGI (SN12C; total growth inhibition): 34.7 µM
IC50 (NCI-H322M; Homo sapiens): 15.6 µM
TGI (NCI-H322M; total growth inhibition): 29.8 µM
IC50 (MALME-3M; Homo sapiens): 1.68 µM
TGI (MALME-3M; [1]): 3.21
TGI (MDA-MB-468; total growth inhibition): 32.9 µM
IC50 (MDA-MB-468; Homo sapiens): 14.8 µM
IC50 (SK-MEL-2; Homo sapiens): ≥ 100 µM
TGI (SK-MEL-2; total growth inhibition): 100
IC50 (PC-3; Homo sapiens): 15.1 µM
TGI (PC-3; total growth inhibition): 30.1 µM
IC50 (A549/ATCC; Homo sapiens): 10.9 µM
TGI (A549/ATCC; total growth inhibition): 24.3 µM
IC50 (NCI-H460; Homo sapiens): 3.19 µM
TGI (NCI-H460; total growth inhibition): 10.2 µM
IC50 (OVCAR-3; Homo sapiens): 9.59 µM
TGI (OVCAR-3; total growth inhibition): 25.8 µM
TGI (COLO 205; total growth inhibition): 32.8
IC50 (COLO 205; Homo sapiens): 16.8 µM
TGI (U251; CNS Cancer, total growth inhibition): 14.7
IC50 (U251; Homo sapiens, U-251, CNS Cancer): 3.43 µM
IC50 (HOP-62; Homo sapiens): 16.4 µM
TGI (HOP-62; total growth inhibition): 32.2 µM
IC50 (OVCAR-8; Homo sapiens): 17.4 µM
TGI (OVCAR-8; [1]): 35.4
IC50 (HepG2): 1.48 ± 0.09 µM
IC50 (UACC-62; Homo sapiens): 18.4 µM
TGI (UACC-62; total growth inhibition): 33.9 µM
